# Reference: patent publication US12090163B2, “Pharmaceutical compositions” (CIPLA LIMITED, priority 2017, dated 2024)
# Structures can show the parent of a compound that is named as a salt.
# Assays:
# HBV = assay: Primary anti-HBV assay, extracellular HBV DNA by real-time qPCR from HepG2 2.2.15 cells; format: cell-based, HBV wild-type strain ayw1
# Method: The primary anti-HBV assay was performed by using real-time qPCR (TaqMan) to measure extracellular HBV DNA copy number associated with virions released from HepG2 2.2.15 cells. The HepG2 2.2.15 cell line was a stable human hepatoblastoma cell line that contains two copies of the HBV wild-type strain ayw1 genome and constitutively produces high levels of HBV. Antiviral compounds blocking any […] step of viral replication such as transcription, translation, pregenome encapsidation, reverse transcription, particle assembly and release can be identified and characterized using this cell line. Briefly, HepG2 2.2.15 cells were plated in 96-well microtiter plates at 1.5×10^4 cells/well in Dulbecco's Modified Eagle's Medium supplemented with 2% FBS, 380 μg/mL G418, 2.0 mM L-Glutamine, 100 units/mL Penicillin, 100 μg/mL Streptomycin, and 0.1 mM non-essential amino acids. Only the interior wells were utilized to reduce “edge effects” observed during cell culture; the exterior wells were filled with complete medium to help minimize sample evaporation. After 16-24 hours the confluent monolayer of HepG2 2.2.15 cells was washed and the medium was replaced with complete medium containing various concentrations of a test compound in triplicate. Lamivudine (3TC) was used as the positive control, while media alone was added to cells as a negative control (virus control, VC). Three days later the culture medium was replaced with fresh medium containing the appropriately diluted test compounds. Six days following the initial administration of the test compound, the cell culture supernatant was collected, treated with pronase and then used in a real-time quantitative TaqMan qPCR assay. The PCR-amplified HBV DNA was detected in real-time by monitoring increases in fluorescent signal that result from the exonucleolytic degradation of a quenched fluorescent probe molecule that hybridizes to the amplified HBV DNA. […] Antiviral activity was calculated from the reduction in HBV DNA levels (EC50 values determined). […] The Selectivity Index was calculated as CC50/EC50.
# [1] = Compound cytotoxicity in PBMC assay plates by MTS; format: cell-based; conditions: human, PBMCs, listed as of isolate JV-1083
# Method: Fresh human PBMCs, seronegative for HIV and HBV, were isolated from screened donors (Biological Specialty Corporation, Colmar, PA). Cells were pelleted/washed 2-3 times by low speed centrifugation and re-suspension in PBS to remove contaminating platelets. The Leukophoresed blood was then diluted 1:1 with Dulbecco's Phosphate Buffered Saline (DPBS) and layered over 15 mL of Ficoll (GE Healthcare #17-1440-02) in 50 mL centrifuge tube and then centrifuged for 30 minutes at 600×g. Banded PBMCs were gently aspirated from the resulting interface and subsequently washed 2× with PBS by low speed centrifugation. […] Pooling (mixing) of mononuclear cells from more than one donor was used to minimize the variability observed between individual donors, which results from quantitative and qualitative differences in HIV infection and overall response to the PHA and IL-2 of primary lymphocyte populations. […]
# Following removal of supernatant samples, compound cytotoxicity was measured by addition of MTS to the plates for determination of cell viability. […]
# At assay termination, assay plates were stained with the soluble tetrazolium-based dye MTS (CellTiter 96 Reagent, Promega) to determine cell viability and quantify compound toxicity. […] This allows the rapid quantitative analysis of cell viability and compound cytotoxicity. […]
# [2] = Cytotoxicity in HCV replicon cells (CytoTox-1 cell proliferation assay); format: cell-based; conditions: human, concentration decreasing cell viability by 50%
# Method: The subgenomic HCV replicons of genotype 1a (H77 strain), 1b (Coni strain), and 2a (JFH-1 strain), which are Huh7 human hepatoma cell lines that contains an HCV replicon were used.
# Briefly, the replicon cells were plated at 5,000 cells/well into 96-well plates that were dedicated for the analysis of cell numbers (cytotoxicity) or antiviral activity. On the following day, samples were diluted with assay media and added to the appropriate wells. Cells were processed 72 hours later when the cells were still sub-confluent. For the luciferase endpoint assay, HCV replicon levels were assessed as replicon-derived Luc activity. The concentration of drug that reduces cell viability was assessed by the fluorometric CytoTox-1 cell proliferation assay (Promega), (expressed as cell numbers). For the qRT-PCR/TaqMan assay, total RNA was extracted from the replicon cells using RNeasy 96 kit (Qiagen) according to the manufacturer's protocol. Real-time RTPCR/TaqMan assays was performed to measure copy numbers of the replicon RNA and cellular ribosomal RNA.
compound,measurement,setting,value
C[C@H](Cn1cnc2c(N)ncnc21)OCP(=O)(OCOC(=O)C(C)(C)C)Oc1ccccc1 (stereo partly drawn) [((((((R)-1-(6-amino-9H-purin-9-yl)propan-2-yl)oxy)methyl)(phenoxy)phosphoryl)oxy)methyl pivalate fumarate],Selectivity Index,"HBV; CC50/EC50, HepG2 2.2.15 cells",>1250
same,Conclusion: activity against HBV,HBV; HepG2 2.2.15 cells,potently active
same,EC50,"HBV; Hepatitis B virus, 144 h, reduction in extracellular HBV DNA, HepG2 2.2.15 cells, six days",0.08 µM
same,CC50,[1],27.7 µM
same,CC50 at 72 h,[2],50.1 µM
